Experimental data from patent US8193191B2, “Urotensin II receptor antagonists” (Janssen Pharmaceutica N.V., priority 2006, dated 2012).
Several values for one entry are separate records, joined by “and”; a condition that tells them apart may be missing. Equal entries are not always repeated. Where two headings read alike, the source gives them in different places.

Key:
[1] = biological target: T1, rat GPR14 (U-II receptor) (Rattus norvegicus, UniProt P49684); experiment: Rat UII Calcium Mobilization FLIPR Assay; type: cell-based; conditions: for inhibition at 10 µM: 10 μM compound, read-out: % I @ 10
T1 construct: expressed in transfected cells
T1 sequence (P49684 1-386): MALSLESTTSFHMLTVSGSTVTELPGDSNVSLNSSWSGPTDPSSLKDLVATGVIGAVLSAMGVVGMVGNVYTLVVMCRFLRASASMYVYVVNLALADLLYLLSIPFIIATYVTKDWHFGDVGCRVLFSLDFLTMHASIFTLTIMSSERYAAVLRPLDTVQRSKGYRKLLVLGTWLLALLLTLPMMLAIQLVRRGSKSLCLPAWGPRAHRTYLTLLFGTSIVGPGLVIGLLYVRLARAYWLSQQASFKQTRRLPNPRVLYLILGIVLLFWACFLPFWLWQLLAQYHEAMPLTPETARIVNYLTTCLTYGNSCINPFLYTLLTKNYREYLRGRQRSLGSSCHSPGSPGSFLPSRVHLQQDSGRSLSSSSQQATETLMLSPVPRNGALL
Method in brief: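 Fluorescent calcium signals were recorded at room temperature (23° C) by FLIPR. Stable rat U-II receptor CHO lines had been dye-loaded for 1 h at 37° C in pH 7.4 HBSS containing 20 mM HEPES, 0.1% BSA and 2.5 mM probenecid.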

[2] = biological target: T2, Human UII receptor, 6D9 human rhabdomyosarcoma cells (Homo sapiens, UniProt Q9UKP6); experiment: Human UII Calcium Mobilization Assay; type: cell-based; conditions: average value, FLIPR TETRA, read-out: Human UII Ca^+ Mobilization Average IC50
T2 construct: 6D9: isolated by dilution subcloning of RMS13 cells, ATCC® Number: CRL-2061; host or cells: 6D9 human rhabdomyosarcoma cells (subclone of RMS13)
T2 sequence (Q9UKP6 1-389): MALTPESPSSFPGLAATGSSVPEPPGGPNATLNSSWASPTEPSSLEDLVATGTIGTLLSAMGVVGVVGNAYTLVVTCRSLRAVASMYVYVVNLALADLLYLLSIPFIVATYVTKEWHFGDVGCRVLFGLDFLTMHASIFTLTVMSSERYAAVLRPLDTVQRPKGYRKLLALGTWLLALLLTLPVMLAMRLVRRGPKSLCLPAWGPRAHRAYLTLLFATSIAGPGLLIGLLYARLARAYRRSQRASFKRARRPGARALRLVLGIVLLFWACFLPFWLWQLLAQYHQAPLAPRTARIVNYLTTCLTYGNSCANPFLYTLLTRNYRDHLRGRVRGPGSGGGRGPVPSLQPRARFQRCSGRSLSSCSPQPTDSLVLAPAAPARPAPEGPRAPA
Method: 6D9 human rhabdomyosarcoma cells were seeded into tissue culture treated 384-well black-walled clear bottom plates (3712, Corning Incorporated, Corning, N.Y.) at 8,000 cells/well in 25 μL of culture medium, and maintained in an incubator (5% CO2 at 37° C.) for 22 hrs prior to the calcium mobilization assay. 25 μL of dye solution was added to the wells such that the final liquid volume before agonist/antagonist treatment was 50 μL for all assays. The cell plates were incubated at 37° C. for 45 minutes and the fluorescence intensity was measured on a Fluorometric Imaging Plate Reader (FLIPR^TETRA, Molecular Devices, Sunnyvale, Calif.).
Antagonist and agonist U-II were added at room temperature on the FLIPR^TETRA, and the fluorescence intensity before and after addition was measured over a period of 4 minutes. The dye incubation time and temperature as well as instrument setting was adjusted so the fluorescence intensity could be compared between plates on the same day. EC50 and IC50 were analyzed using GraphPad Prism 4 software (GraphPad Software Inc., San Diego, Calif.).
Materials and reagent Preparation: Human Rhabdomyosarcoma cells (6D9: isolated by dilution subcloning of RMS13 cells, ATCC® Number: CRL-2061, American Type Culture Collection ATCC, Manassas, Va.) was maintained in RPMI-1640 medium (30-2001, ATCC, Manassas, Va.) supplemented with 10% (v/v) Fetal Bovine Serum (SH30071.03, Hyclone, Logan, Utah).
Dye preparation: BD™ Calcium Assay Kit (80500-301, BD Biosciences, Rockville, Md.) was prepared according to the manufacture's instruction in 1× Hanks' balanced salt solution (HBSS, 21-023-CV, Mediatech, Inc. Herndon, Va.) containing 20 mM HEPES buffer (25-060-CI, Mediatech, Inc. Herndon, Va.). Final dye loading conditions included 1.25 mM probenecid (P36400, Invitrogen, Carlsbad, Calif.) and 0.01% FBS.
Urantide (PUT-3639-PI, Peptide International, Louisville, Ky.) was prepared in water at 5 mM. For assays, U-II agonist, U-II antagonist and urantide were diluted with HBSS/HEPES containing 0.01% FBS.
Test compounds were dissolved in DMSO at 10 mM concentration. The serial dilutions were carried out in HBSS/HEPES. The highest final DMSO concentration was at 0.1%.

[3] = biological target: T3, endogenous human UII receptor (Homo sapiens, UniProt Q9UKP6); experiment: Human Radioligand Binding Assay ((^125I)-U-II binding to human skeletal muscle myoblasts)
T3 sequence (Q9UKP6 1-389): T2 sequence (Q9UKP6 1-389)

[4] = average value for the compound tested, read-out: Rat UII FLIPR Average IC50
[5] = CHO, 5 min, agonist-induced Ca2+ mobilization (FLIPR), CHO cells with rat UII receptor
[6] = Inhibition of Acetyl-cyclic[Cys-Phe-Trp-Lys-(2-Nal)-Cys]-NH2 induced Ca2+ mobilization (FLIPR) in CHO cells transfected with rat UII receptor, read-out: IC50

For `COc1ccc(C(CCNC(=O)Cc2ccncc2)N2C(=O)c3cccc(N4CCN([C@H](C)c5ccccc5)CC4)c3C2=O)cc1OC` (stereo partly drawn) [Cpd 103, N-(3-(3,4-dimethoxy-phenyl)-3-{1,3-dioxo-4-[4-(1R)-(1-phenyl-ethyl)-piperazin-1-yl]-1,3-dihydro-isoindol-2-yl}-propyl)-2-pyridin-4-yl-acetamide], the IC50 [1, 4] was 0.035 µM and the IC50 [2] was 0.59 µM.

`CCN1CCN(c2cccc3c2C(=O)N([C@H](CCCOS(=O)(=O)c2cccs2)c2ccc(OC)c(OC)c2)C3=O)CC1` [Cpd 208, (R)-thiophene-2-sulfonic acid 4-(3,4-dimethoxy-phenyl)-4-[4-(4-ethyl-piperazin-1-yl)-1,3-dioxo-1,3-dihydro-isoindol-2-yl]-butyl ester] showed an IC50 [1, 4] of 0.32 µM and an IC50 [2] of 4.5 µM.

Work on `COc1ccc([C@@H](CCCNc2ccccn2)N2C(=O)c3cccc(N4CCN([C@H](C)c5ccccc5)CC4)c3C2=O)cc1OC` [Cpd 142, (R)-2-[1-(3,4-dimethoxy-phenyl)-4-(pyridin-2-ylamino)-butyl]-4-[4-(1R)-(1-phenyl-ethyl)-piperazin-1-yl]-isoindole-1,3-dione] yielded an IC50 [1, 4] of 0.097 µM and an IC50 [2] of 1.1 µM.

In the case of `COc1ccc([C@@H](CCCNC(=O)C(C)C)N2C(=O)c3cccc(OC4CCN(C)C4)c3C2=O)cc1OC` (stereo partly drawn) [Cpd 200, (R)-N-{4-(3,4-dimethoxy-phenyl)-4-[4-(1-methyl-pyrrolidin-3-yloxy)-1,3-dioxo-1,3-dihydro-isoindol-2-yl]-butyl}-isobutyramide], the IC50 [1, 4] is reported as 4 µM and the IC50 [2] is reported as > 10 µM.

`CCN1CCN(c2cccc3c2C(=O)N([C@H](CCCNS(=O)(=O)c2c(C)nn(C)c2C)c2ccc(OC)c(OC)c2)C3=O)CC1` [Cpd 204, (R)-1,3,5-trimethyl-1H-pyrazole-4-sulfonic acid {4-(3,4-dimethoxy-phenyl)-4-[4-(4-ethyl-piperazin-1-yl)-1,3-dioxo-1,3-dihydro-isoindol-2-yl]-butyl}-amide] gave an IC50 [1, 4] of 0.0075 µM and an IC50 [2] of 0.2 µM.

With `COc1ccc([C@@H](CCCNC(=O)C(C)C)N2C(=O)c3cccc(OC4CCN(C)CC4)c3C2=O)cc1OC` [Cpd 205, (R)-N-{4-(3,4-dimethoxy-phenyl)-4-[4-(1-methyl-piperidin-4-yloxy)-1,3-dioxo-1,3-dihydro-isoindol-2-yl]-butyl}-isobutyramide] the IC50 [1, 4] was 3.7 µM and the IC50 [2] was > 3 µM.

`COc1ccc([C@@H](CCCNS(=O)(=O)c2cccs2)N2C(=O)c3cccc(N4CCN(CC(F)(F)F)CC4)c3C2=O)cc1OC` [Cpd 195, (R)-thiophene-2-sulfonic acid (4-(3,4-dimethoxy-phenyl)-4-{1,3-dioxo-4-[4-(2,2,2-trifluoro-ethyl)-piperazin-1-yl]-1,3-dihydro-isoindol-2-yl}-butyl)-amide] was tested, and the IC50 [1, 4] was 2.1 µM and the IC50 [2] was > 10 µM.

`COc1ccc([C@@H](CCCNC(=O)CN(C)C)N2C(=O)c3cccc(N4CCN([C@H](C)c5ccccc5)CC4)c3C2=O)cc1OC` [Cpd 143, (R)-N-(4-(3,4-dimethoxy-phenyl)-4-{1,3-dioxo-4-[4-(1R)-(1-phenyl-ethyl)-piperazin-1-yl]-1,3-dihydro-isoindol-2-yl}-butyl)-2-dimethylamino-acetamide] showed an IC50 [1, 4] of 0.028 µM and an IC50 [2] of 0.69 µM.

`COc1ccc(CN2C(=O)c3cccc(N4CCN(Cc5ccoc5)CC4)c3C2=O)cc1OC` [Cpd 78, 2-(3,4-dimethoxy-benzyl)-4-(4-furan-3-ylmethyl-piperazin-1-yl)-isoindole-1,3-dione] gave a Ki [3] of 2.6 µM and an IC50 [1, 4] of 0.27 µM.

`COc1ccc(CN2C(=O)c3c(Cl)ccc(N4CC5CCC(C4)N5Cc4ccccc4)c3C2=O)cc1OC` [Cpd 9, 4-(8-benzyl-3,8-diaza-bicyclo[3.2.1]oct-3-yl)-7-chloro-2-(3,4-dimethoxy-benzyl)-isoindole-1,3-dione] was tested, and the Ki [3] was 0.66 µM, the inhibition at 10 µM [1, 5] was 91% and the inhibition at 50 µM ([1]; CHO, 5 min, 50 μM compound, agonist-induced Ca2+ mobilization (FLIPR), CHO cells with rat UII receptor, read-out: % I @ 50) was 81%. It also gave an IC50 [1, 6] of 0.19 µM.

Compound `COc1ccc([C@@H](CCCNS(=O)(=O)c2ccc(C)s2)N2C(=O)c3cccc(N4CCN([C@H](C)c5ccccc5)CC4)c3C2=O)cc1OC` [Cpd 126, (R)-5-methyl-thiophene-2-sulfonic acid (4-(3,4-dimethoxy-phenyl)-4-{1,3-dioxo-4-[4-(1R)-(1-phenyl-ethyl)-piperazin-1-yl]-1,3-dihydro-isoindol-2-yl}-butyl)-amide] has a Ki [3] of 0.34 µM and an IC50 [1, 4] of 0.081 µM.

`CCn1cc(S(=O)(=O)NCCC[C@H](c2ccc(OC)c(OC)c2)N2C(=O)c3cccc(N4CCN([C@H](C)c5ccccc5)CC4)c3C2=O)cn1` [Cpd 134, (R)-1-ethyl-1H-pyrazole-4-sulfonic acid (4-(3,4-dimethoxy-phenyl)-4-{1,3-dioxo-4-[4-(1R)-(1-phenyl-ethyl)-piperazin-1-yl]-1,3-dihydro-isoindol-2-yl}-butyl)-amide] showed a Ki [3] of 0.068 µM and an IC50 [1, 4] of 0.019 µM.

In the case of `COc1ccc(CN2C(=O)c3cccc(N4CCN(Cc5cccs5)CC4)c3C2=O)cc1OC` [Cpd 81, 2-(3,4-dimethoxy-benzyl)-4-(4-thiophen-2-ylmethyl-piperazin-1-yl)-isoindole-1,3-dione], the Ki [3] is reported as > 10 µM and the IC50 [1, 4] is reported as 1.4 µM.

In the case of `COc1ccc(CN2C(=O)c3cccc(N4CC5CCC(C4)N5Cc4ccccc4)c3C2=O)cc1OC` [Cpd 7, 4-(8-benzyl-3,8-diaza-bicyclo[3.2.1]oct-3-yl)-2-(3,4-dimethoxy-benzyl)-isoindole-1,3-dione], the Ki [3] is reported as 0.2 µM, the inhibition at 10 µM [1, 5] is reported as 89% and the IC50 [1, 6] is reported as 0.22 µM and 0.18 µM.

In the case of `COc1ccc([C@@H](CCCNS(=O)(=O)c2sc(NC(C)=O)nc2C)N2C(=O)c3cccc(N4CCN([C@H](C)c5ccccc5)CC4)c3C2=O)cc1OC` [Cpd 130, (R)-N-[5-(4-(3,4-dimethoxy-phenyl)-4-{1,3-dioxo-4-[4-(1R)-(1-phenyl-ethyl)-piperazin-1-yl]-1,3-dihydro-isoindol-2-yl}-butylsulfamoyl)-4-methyl-thiazol-2-yl]-acetamide], the Ki [3] is reported as > 0.3 µM and the IC50 [1, 4] is reported as 0.054 µM.

`COc1ccc([C@@H](CCNC(=O)OCc2ccccc2)N2C(=O)c3cccc(N4CCN([C@H](C)c5ccccc5)CC4)c3C2=O)cc1OC` [Cpd 216, (R)-(3-(3,4-dimethoxy-phenyl)-3-{1,3-dioxo-4-[4-(1R)-(1-phenyl-ethyl)-piperazin-1-yl]-1,3-dihydro-isoindol-2-yl}-propyl)-carbamic acid benzyl ester] showed a Ki [3] of 0.13 µM and an IC50 [1, 4] of 0.064 µM.
